This experiment in a line: pharmacological and pharmacodynamic studies. Conditions: no method or data given.

In the case of `COc1ccc2cccc(CCNC(C)=O)c2c1` [agomelatine crystal, N-[2-(7-methoxy-1-naphthyl)-ethyl]acetamide], the “therapeutic effects for central neural system and microcirculation” value was “good therapeutic effects for central neural system and microcirculation”.

The values above are taken from patent US9029420B2, “Agomelatine and pharmaceutical compositions thereof” (Tianjin Taipu Pharmaceutical Science & Technology …, priority 2009, dated 2015).
